Data on 16 compounds can be found in patent EP4725948A1, “PYRROLO[2,3-D]PYRIMIDIN-4-AMINE DERIVATIVE AND USE THEREOF IN MEDICINE” (Haisco Pharmaceutical Group Co., Ltd., priority 2023, dated 2024).

The target in one data set is T1, sGC protein (Homo sapiens, UniProt Q02108+Q02153).
T1 construct: LNCap is a human prostate cancer cell line that expresses sGC protein; host or cells: LNCap (human prostate cancer cell line)
T1 sequence (Q02108 1-690): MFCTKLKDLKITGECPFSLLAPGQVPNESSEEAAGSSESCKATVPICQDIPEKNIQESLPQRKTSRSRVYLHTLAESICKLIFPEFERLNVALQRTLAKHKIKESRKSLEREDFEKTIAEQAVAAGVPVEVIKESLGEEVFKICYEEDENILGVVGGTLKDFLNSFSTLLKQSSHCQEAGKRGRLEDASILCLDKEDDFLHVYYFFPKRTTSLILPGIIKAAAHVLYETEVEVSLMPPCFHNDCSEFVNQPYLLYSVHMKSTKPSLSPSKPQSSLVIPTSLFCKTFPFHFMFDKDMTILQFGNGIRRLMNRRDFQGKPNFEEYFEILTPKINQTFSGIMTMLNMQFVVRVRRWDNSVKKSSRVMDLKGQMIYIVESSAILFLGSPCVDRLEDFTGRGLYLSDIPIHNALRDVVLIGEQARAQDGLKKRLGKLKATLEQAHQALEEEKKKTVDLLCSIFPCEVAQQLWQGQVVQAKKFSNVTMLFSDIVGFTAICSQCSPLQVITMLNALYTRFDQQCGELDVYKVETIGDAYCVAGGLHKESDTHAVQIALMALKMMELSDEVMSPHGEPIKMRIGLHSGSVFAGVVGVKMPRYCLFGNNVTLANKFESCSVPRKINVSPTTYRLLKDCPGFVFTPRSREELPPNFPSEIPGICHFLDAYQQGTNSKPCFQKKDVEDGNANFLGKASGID
T1 sequence (Q02153 1-619): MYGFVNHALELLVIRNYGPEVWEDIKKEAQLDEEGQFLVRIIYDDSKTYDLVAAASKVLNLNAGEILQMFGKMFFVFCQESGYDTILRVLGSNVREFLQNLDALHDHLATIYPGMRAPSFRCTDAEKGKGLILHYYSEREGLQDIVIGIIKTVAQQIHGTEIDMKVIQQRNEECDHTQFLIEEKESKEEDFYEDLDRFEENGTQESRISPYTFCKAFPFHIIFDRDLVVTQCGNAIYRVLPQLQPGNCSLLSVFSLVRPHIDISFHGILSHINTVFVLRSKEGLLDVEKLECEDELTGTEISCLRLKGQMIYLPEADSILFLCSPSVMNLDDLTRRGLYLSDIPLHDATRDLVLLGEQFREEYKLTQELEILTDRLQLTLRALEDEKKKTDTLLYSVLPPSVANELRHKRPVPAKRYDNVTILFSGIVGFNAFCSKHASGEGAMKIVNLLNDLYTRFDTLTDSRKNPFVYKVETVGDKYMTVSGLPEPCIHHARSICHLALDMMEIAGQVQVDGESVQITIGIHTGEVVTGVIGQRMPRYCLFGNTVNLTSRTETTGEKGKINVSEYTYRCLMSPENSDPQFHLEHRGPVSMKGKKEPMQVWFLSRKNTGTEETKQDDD
Description: cGMP detection experiment in LNCap cells. Type of data set: cell-based. As to conditions: cGMP production in LNCap cells; 20 µM DETA-NO pre-incubation; relative to compound A. As for the experimental part:
LNCap is a human prostate cancer cell line that expresses sGC protein. […] On the day of the detection, the cells were reselected in assay buffer (EBSS assay buffer+[…] of MgCl2+10 mM HEPES+0.05% BSA) at a density of 2 × 10^5/mL. 0.5 mM IBMX was added to prevent cGMP degradation.
The cells were pre-incubated with 20 µM diethylenetriamine/nitric oxide (DETA-NO) at 37°C for 30 minutes, and then different concentrations of the compounds were added. The mixture was further incubated at room temperature for 1 h. After the incubation was completed, the reaction was terminated, and intracellular cGMP levels were measured according to the instructions for the CisBio kit (Cisbio, 62GM2PEC).

The nature of data set [1]: Pharmacokinetic test in rats (inhalation administration). As to conditions: for Lung AUC0-t / Lung Cmax / Lung AUC0-t/plasma AUC0-t: SD rats, single inhalation dose 0.03 mg/kg; for Lung AUC0-t / Lung Cmax: lung tissue.
Description: Experimental objective: In this experiment, the test compound was administered as a single dose via inhalation to SD rats, and the concentrations of the test compound in rat plasma and lungs were determined to evaluate the pharmacokinetic characteristics and bioavailability of the test compound in the rats.
Experimental animals: Male SD rats, 180-200 g, purchased from Chengdu Dossy Experimental Animals Co., Ltd.
Experimental method: On the day of the experiment, SD rats were randomly assigned into 6 groups according to body weight (for each compound), with 2 rats in each group. The rats were fasted with water available for 12 to 16 hours one day before the administration, and were fed 4 hours after the administration.
Plasma sampling: before and after the administration, blood was taken from the orbits of the rats under isoflurane anaesthesia, and placed in an EDTAK2 centrifuge tube. Centrifugation was performed at 6000 rpm at 4°C for 10 min, and the plasma was collected.
Lung tissue sampling: Animals from each group were euthanised by CO2 inhalation at 0.25, 0.5, 1, 4, 7 and 24 hours after the administration. Then, the animal was dissected to collect lung tissue, which was rinsed with physiological saline, dried with filter paper, weighed in the balance, kept on wet ice and homogenised within 2 hours using a 6-fold volume (i.e., 6 mL per 1 g of tissue) of homogenisation buffer (50% methanol-water).
Before analysis and detection, all samples were stored at -60°C. The samples were analysed quantitatively by LC-MS/MS.
The conditions of data set [2]: AE frequency, riociguat group, cited from earlier work.
For data set [3], the target named is T2, soluble guanylate cyclase (sGC) (Homo sapiens, UniProt Q02108+Q02153).
T2 sequence (Q02108 1-690): T1 sequence (Q02108 1-690)
T2 sequence (Q02153 1-619): T1 sequence (Q02153 1-619)
The data set can be described thus: In vitro detection experiment for soluble guanylate cyclase (sGC) activity (TR-FRET).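 Further: enzyme reaction started with GTP and run for 60 min at 37°C, followed by a 60 min detection step at room temperature, with EC50 obtained by nonlinear curve fitting.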
Description: First, 100 nL of the compounds at different concentrations were transferred to a 384-well reaction plate (Greiner, Cat. No. 784075) using Echo 655 (LABCYTE, Cat # 655), with the final DMSO concentration of 1% in the reaction mixture; 2 µL of sGC (ICE, Cat. No. S2304F-H07SH2) was added to a 384-well reaction plate, and the mixture was centrifuged at 1000 rpm for 1 min; and then 1 µL of DETA NONOate was added, and the mixture was incubated at 37°C for10 min. After the incubation was completed, 2 µL of GTP was added, and the mixture was centrifuged at 1000 rpm for 1 min and reacted at 37°C for 60 min. In the reaction system, the final concentrations of sGC, GTP, and DETA NONOate were 1.5 nM, 5 µM, and 100 µM, respectively. After the reaction was completed, 5 µL of the test mixture (PerkinElmer, Cat. No. 62GM2PEG) was added and incubated at room temperature for 60 min. The TR-FRET signal (Ratio: 665/620 nm) was read using a microplate reader (BMG, Cat. No. PHERAstar FSX). A nonlinear regression curve was fitted using GraphPad Prism software, and EC50 values were calculated. Compound A (Example 1 in WO 2010065275) was used as a positive reference compound.

Setting [4] is: 12-week PATENT-1 study (placebo 2%).

Molecules are shown by their SMILES.

At sGC protein, `CC(C)(Cc1csc(C2(C)C(=O)Nc3nc(-n4nc(Cc5ccccc5F)c5ncc(F)cc54)nc(N)c32)n1)C(=O)O` (single isomer, unassigned) [Compound 35-1] had an EC50 of under 500 nM. In data set [1], the “Lung AUC0-t” value worked out at 5432 ng·h/mL and the “Lung Cmax” value is reported as 2545 ng/mL.
At sGC protein, `CC(C)(Cc1csc(C2(C)C(=O)Nc3nc(-n4nc(Cc5ccccc5F)c5c(F)cccc54)nc(N)c32)n1)C(=O)O` (single isomer, unassigned) [Compound 41-1] came in with an EC50 of under 500 nM.
With `CC(C)(Cc1csc([C@]2(C)C(=O)Nc3nc(-n4nc(CCC(F)(F)C(F)(F)F)c5cc(F)ccc54)nc(N)c32)n1)C(=O)O` [Compound 17-1], the EC50 on sGC protein was under 500 nM. Further, in data set [1], the “Lung AUC0-t/plasma AUC0-t” value stood at 48.4, the “Lung AUC0-t” value was found to be 2021 ng·h/mL and the “Lung Cmax” value is listed as 1754 ng/mL.
As to `COC(=O)N(C)c1c(N)nc(-c2nn(Cc3ccccc3F)c3ncccc23)nc1N` [riociguat, Riociguat], in data set [2] (12-week PATENT-1 study (placebo 1%)), the constipation was 5%. Further, in data set [2] (setting [4]), the anaemia was 7% and the gastrooesophageal reflux disease is given as 5%. In data set [2] (12-week PATENT-1 study (placebo 4%)), the hypotension is listed as 10%. The vomiting in data set [2] (12-week PATENT-1 study (placebo 7%)) is recorded as 10%. For the same compound, the diarrhoea in data set [2] (12-week PATENT-1 study (placebo 8%)) is 12%. Moreover, in data set [2] (12-week PATENT-1 study (placebo 13%)), the dizziness was 20%.
As for `CC(C)(Cc1cccc([C@@]2(C)C(=O)Nc3nc(-c4nn(CCC(F)(F)C(F)(F)F)c5cc(Cl)cnc45)nc(N)c32)c1)C(=O)O` [Compound 6-1], in data set [1], the “Lung AUC0-t/plasma AUC0-t” value came out at 659, the “Lung AUC0-t” value came to 5173 ng·h/mL and the “Lung Cmax” value is listed as 2825 ng/mL.
Consider `CC(C)(Cc1csc([C@]2(C)C(=O)Nc3nc(-c4nc(Cc5ccccc5F)n5ncccc45)nc(N)c32)n1)C(=O)O` [Compound 19-1], for which, in data set [1], the “Lung AUC0-t/plasma AUC0-t” value amounted to 245, the “Lung AUC0-t” value is 12248 ng·h/mL and the “Lung Cmax” value amounted to 2842 ng/mL.
On sGC protein, `CC(C)(Cc1csc([C@]2(C)C(=O)Nc3nc(-n4c(=O)n(CCC(F)(F)C(F)(F)F)c5c(F)cccc54)nc(N)c32)n1)C(=O)O` [Compound 14-1] yielded an EC50 of under 500 nM.
Same read-out and setting: under `CC(C)(Cc1csc(C2(C)C(=O)Nc3nc(-n4nc(CCC(F)(F)C(F)(F)F)c5c(F)cccc54)nc(N)c32)n1)C(=O)O` (single isomer, unassigned) [Compound 43-1] stands under 500 nM.
`CC(C)(Cc1csc([C@]2(C)C(=O)Nc3nc(-n4c(=O)n(CCC(F)(F)C(F)(F)F)c5cc(F)ccc54)nc(N)c32)n1)C(=O)O` [Compound 31-1] displayed an EC50 on sGC protein of under 500 nM. Moreover, in data set [1], the “Lung AUC0-t/plasma AUC0-t” value came out at 97.9, the “Lung AUC0-t” value stood at 608 ng·h/mL and the “Lung Cmax” value is recorded as 1183 ng/mL.
The compound `CC(C)(Cc1csc(C2(C)C(=O)Nc3nc(-n4nc(Cc5ccccc5F)c5cc(Cl)ccc54)nc(N)c32)n1)C(=O)O` (single isomer, unassigned) [Compound 32-1] returned an EC50 on sGC protein of under 500 nM.
In turn, `CC(C)(Cc1csc([C@]2(C)C(=O)Nc3nc(-c4nn(CCC(F)(F)C(F)(F)F)c5ncccc45)nc(N)c32)n1)C(=O)O` [Control compound 1, reference compound] registered an EC50 at sGC protein of 3220 nM. In data set [1], the “Lung AUC0-t” value is 220 ng·h/mL and the “Lung Cmax” value was determined as 273 ng/mL. Besides, in data set [1] (male, SD, rat, lung and plasma, inhaled or intranasal, 0.03 mg/kg), the Kp worked out at 29.1.
At sGC protein, `CC(C)(Cc1csc(C2(C)C(=O)Nc3nc(-n4c(=O)n(Cc5ccccc5F)c5c(F)cccc54)nc(N)c32)n1)C(=O)O` (single isomer, unassigned) [Compound 15-1] gave an EC50 of under 500 nM.
`CC(C)(Cc1csc(C2(C)C(=O)Nc3nc(-n4nc(Cc5cccc(F)c5F)c5ncc(F)cc54)nc(N)c32)n1)C(=O)O` (single isomer, unassigned) [Compound 36-1]: in data set [1], the “Lung AUC0-t/plasma AUC0-t” value was determined as 49.1, the “Lung AUC0-t” value was 10133 ng·h/mL and the “Lung Cmax” value worked out at 4067 ng/mL.
As for `CC(C)(Cc1csc(C2(C)C(=O)Nc3nc(-n4nc(CCC(F)(F)C(F)(F)F)c5cc(Cl)ccc54)nc(N)c32)n1)C(=O)O` (single isomer, unassigned) [Compound 4-1], the EC50 on sGC protein is under 500 nM. In data set [1], the “Lung AUC0-t/plasma AUC0-t” value is on record as 77.1, the “Lung AUC0-t” value is 2462 ng·h/mL and the “Lung Cmax” value is on record as 2352 ng/mL.
As for `CC(C)(Cc1csc([C@]2(C)C(=O)Nc3nc(-c4nc(CCC(F)(F)C(F)(F)F)n5ncccc45)nc(N)c32)n1)C(=O)O` [Compound 3-1], in data set [1], the “Lung AUC0-t/plasma AUC0-t” value turned out to be 65, the “Lung AUC0-t” value stood at 3626 ng·h/mL and the “Lung Cmax” value is 2979 ng/mL.
Consider `CC(C)(Cc1coc(C2(C)C(=O)Nc3nc(-n4c(=O)n(CC5CCCCC5)c5c(F)cccc54)nc(N)c32)n1)C(=O)O` (stereo not drawn) [Trifluoroacetate of compound 27], for which the EC50 was under 500 nM on sGC protein and under 20 nM in data set [3].
